# Measured values taken from patent US20100267561A1, “HERBICIDAL PYRIDAZINONE DERIVATIVES” (priority 2007, published 2010).
# Assays:
# Type in all cases: in vivo
# [1] = tested on: downy bromegrass (Bromus tectorum); experiment: Test C pre-/postemergence plant response; details: Preemergence
# Source text: (§1) Seeds of plant species selected from annual bluegrass (Poa annua), blackgrass (Alopecurus myosuroides), canola (Brassica rapa), downy bromegrass (Bromus tectorum), green foxtail (Setaria viridis), Italian ryegrass (Lolium multiflorum), canarygrass (Phalaris minor), pigweed (Amaranthus retroflexus), spring barley (Hordeum vulgare), spring wheat (Triticum aestivum), wild mustard (Sinapis arvensis), wild oat (Avena fatua), windgrass (Apera spica-venti), winter barley (Hordeum vulgare), and winter wheat (Triticum aestivum) were planted and treated preemergence with test chemicals formulated in a non-phytotoxic solvent mixture which included a surfactant. At the same time, plants selected from these crop and weed species were treated with postemergence applications of some of the test chemicals formulated in the same manner. Plants ranged in height from 2 to 18 cm (1- to 4-leaf stage) for postemergence treatments.
# (§2) Treated plants and controls were maintained in a controlled growth environment for 15 to 25 days after which time all species were compared to controls and visually evaluated. Plant response ratings, summarized in Table C, are based on a scale of 0 to 100 where 0 is no effect and 100 is complete control. A dash (-) response means no test result.
# [2] = tested on: winter barley (Hordeum vulgare); experiment: Test C pre-/postemergence plant response; details: Preemergence
# Source text: as §1, §2
# [3] = tested on: canarygrass (Phalaris minor); experiment: Test C pre-/postemergence plant response; details: Preemergence
# Source text: as §1, §2
# [4] = tested on: spring wheat (Triticum aestivum); experiment: Test C pre-/postemergence plant response; details: Preemergence
# Source text: as §1, §2
# [5] = tested on: pigweed (Amaranthus retroflexus); experiment: Test C pre-/postemergence plant response; details: Preemergence
# Source text: as §1, §2
# wild oat (Avena fatua) = experiment: Test C pre-/postemergence plant response; details: Preemergence
# Source text: as §1, §2
# [6] = tested on: spring barley (Hordeum vulgare); experiment: Test C pre-/postemergence plant response; details: Preemergence
# Source text: as §1, §2
# [7] = tested on: green foxtail (Setaria viridis); experiment: Test C pre-/postemergence plant response; details: Preemergence
# Source text: as §1, §2
# [8] = tested on: blackgrass (Alopecurus myosuroides); experiment: Test C pre-/postemergence plant response; details: Preemergence
# Source text: as §1, §2
# [9] = tested on: Italian ryegrass (Lolium multiflorum); experiment: Test C pre-/postemergence plant response; details: Preemergence
# Source text: as §1, §2
# [10] = tested on: winter wheat (Triticum aestivum); experiment: Test C pre-/postemergence plant response; details: Preemergence
# Source text: as §1, §2
# [11] = tested on: annual bluegrass (Poa annua); experiment: Test C pre-/postemergence plant response; details: Preemergence
# Source text: as §1, §2
# [12] = tested on: windgrass (Apera spica-venti); experiment: Test C pre-/postemergence plant response; details: Preemergence
# Source text: as §1, §2
# [13] = tested on: ducksalad (Heteranthera limosa); experiment: Test B flooded paddy test plant response
# Summary of the method: (§3)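 Rice, umbrella sedge, ducksalad and barnyardgrass at 2-leaf stage; pots flooded to 3 cm, compounds applied into paddy water, depth held throughout. Greenhouse 13 to 15 days, then visual rating vs untreated controls on 0–100 scale (0 no effect, 100 complete control); dash means no test result.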
# [14] = tested on: umbrella sedge (Cyperus difformis); experiment: Test B flooded paddy test plant response
# Summary of the method: as §3
# rice (Oryza sativa) = experiment: Test B flooded paddy test plant response
# Summary of the method: as §3
# [15] = 8 g ai/ha, scale 0 to 100 (0 no effect, 100 complete control)
# [16] = 16 g ai/ha, scale 0 to 100 (0 no effect, 100 complete control)
# [17] = 31 g ai/ha, scale 0 to 100 (0 no effect, 100 complete control)
# [18] = 62 g ai/ha, scale 0 to 100, 0 no effect, 100 complete control
# [19] = Flood (flooded paddy test), 62 g ai/ha, scale 0 to 100, 0 no effect, 100 complete control
# [20] = Flood (flooded paddy test), 125 g ai/ha, scale 0 to 100, 0 no effect, 100 complete control
# [21] = Flood (flooded paddy test), 250 g ai/ha, scale 0 to 100, 0 no effect, 100 complete control
# [22] = Flood, 31 g ai/ha, scale 0 to 100
# [23] = Heteranthera limosa, Flood (flooded paddy test), 62 g ai/ha, scale 0 to 100, 0 no effect, 100 complete control, read-out: Plant response rating, Ducksalad
# [24] = Heteranthera limosa, Flood (flooded paddy test), 250 g ai/ha, scale 0 to 100, 0 no effect, 100 complete control, read-out: Plant response rating, Ducksalad
# [25] = Cyperus difformis, Flood (flooded paddy test), 62 g ai/ha, scale 0 to 100, 0 no effect, 100 complete control, read-out: Plant response rating, Sedge, Umbrella
# [26] = Cyperus difformis, Flood (flooded paddy test), 250 g ai/ha, scale 0 to 100, 0 no effect, 100 complete control, read-out: Plant response rating, Sedge, Umbrella
# [27] = Oryza sativa, Flood (flooded paddy test), 62 g ai/ha, scale 0 to 100, 0 no effect, 100 complete control, read-out: Plant response rating, Rice
# [28] = Oryza sativa, Flood (flooded paddy test), 250 g ai/ha, scale 0 to 100, 0 no effect, 100 complete control, read-out: Plant response rating, Rice
smiles,measurement,setting,value
COC(=O)Oc1cnn(C)c(=O)c1-n1nc(-c2ccc(Cl)cc2)cc1C [Compound 33],"Plant response rating, Bromegrass, Downy",[1]; [15],0
same,"Plant response rating, Bromegrass, Downy",[1]; [16],35
same,"Plant response rating, Bromegrass, Downy",[1]; [17],35
same,"Plant response rating, Bromegrass, Downy",[1]; [18],60
same,"Plant response rating, Barley, Winter",[2]; [15],0
same,"Plant response rating, Barley, Winter",[2]; [16],0
same,"Plant response rating, Barley, Winter",[2]; [17],0
same,"Plant response rating, Barley, Winter",[2]; [18],20
same,"Plant response rating, Canarygrass",[3]; [15],0
same,"Plant response rating, Canarygrass",[3]; [16],10
same,"Plant response rating, Canarygrass",[3]; [17],65
same,"Plant response rating, Canarygrass",[3]; [18],90
same,"Plant response rating, Wheat, Spring",[4]; [15],0
same,"Plant response rating, Wheat, Spring",[4]; [16],0
same,"Plant response rating, Wheat, Spring",[4]; [17],20
same,"Plant response rating, Wheat, Spring",[4]; [18],50
same,"Plant response rating, Pigweed",[5]; [16],0
same,"Plant response rating, Pigweed",[5]; [17],0
same,"Plant response rating, Pigweed",[5]; [18],0
same,"Plant response rating, Oat, Wild",wild oat (Avena fatua); [15],0
same,"Plant response rating, Oat, Wild",wild oat (Avena fatua); [16],25
same,"Plant response rating, Oat, Wild",wild oat (Avena fatua); [17],60
same,"Plant response rating, Oat, Wild",wild oat (Avena fatua); [18],75
same,"Plant response rating, Barley, Spring",[6]; [15],0
same,"Plant response rating, Barley, Spring",[6]; [16],0
same,"Plant response rating, Barley, Spring",[6]; [17],10
same,"Plant response rating, Barley, Spring",[6]; [18],25
same,"Plant response rating, Foxtail, Green",[7]; [15],15
same,"Plant response rating, Foxtail, Green",[7]; [16],95
same,"Plant response rating, Foxtail, Green",[7]; [17],100
same,"Plant response rating, Foxtail, Green",[7]; [18],100
same,"Plant response rating, Blackgrass",[8]; [15],0
same,"Plant response rating, Blackgrass",[8]; [16],50
same,"Plant response rating, Blackgrass",[8]; [17],80
same,"Plant response rating, Blackgrass",[8]; [18],100
same,"Plant response rating, Ryegrass, Italian",[9]; [15],10
same,"Plant response rating, Ryegrass, Italian",[9]; [16],65
same,"Plant response rating, Ryegrass, Italian",[9]; [17],100
same,"Plant response rating, Ryegrass, Italian",[9]; [18],100
same,"Plant response rating, Wheat, Winter",[10]; [15],0
same,"Plant response rating, Wheat, Winter",[10]; [16],0
same,"Plant response rating, Wheat, Winter",[10]; [17],15
same,"Plant response rating, Wheat, Winter",[10]; [18],40
same,"Plant response rating, Bluegrass",[11]; [15],0
same,"Plant response rating, Bluegrass",[11]; [16],0
same,"Plant response rating, Bluegrass",[11]; [17],0
same,"Plant response rating, Bluegrass",[11]; [18],0
same,"Plant response rating, Windgrass",[12]; [15],0
same,"Plant response rating, Windgrass",[12]; [16],0
same,"Plant response rating, Windgrass",[12]; [18],50
same,"Plant response rating, Ducksalad",[13]; [19],0
same,"Plant response rating, Ducksalad",[13]; [20],40
same,"Plant response rating, Ducksalad",[13]; [21],50
same,"Plant response rating, Ducksalad",[13]; [22],0
same,"Plant response rating, Sedge, Umbrella",[14]; [19],20
same,"Plant response rating, Sedge, Umbrella",[14]; [20],35
same,"Plant response rating, Sedge, Umbrella",[14]; [21],60
same,"Plant response rating, Sedge, Umbrella",[14]; [22],0
same,"Plant response rating, Rice",rice (Oryza sativa); [19],65
same,"Plant response rating, Rice",rice (Oryza sativa); [20],75
same,"Plant response rating, Rice",rice (Oryza sativa); [21],80
same,"Plant response rating, Rice",rice (Oryza sativa); [22],30
"Cc1nn(C)c(=O)c(-n2nc(-c3ccc(C(F)(F)F)cc3)cc2C)c1O [Compound 75, 5-hydroxy-2,6-dimethyl-4-[5-methyl-3-[4-(trifluoromethyl)phenyl]-1H-pyrazol-1-yl]-3(2H)-pyridazinone]",pest or weed control at 62 g/ha,[13]; [23],0%
same,pest or weed control at 250 g/ha,[13]; [24],0%
same,pest or weed control at 62 g/ha,[14]; [25],0%
same,pest or weed control at 250 g/ha,[14]; [26],0%
same,plant injury at 62 g/ha,rice (Oryza sativa); [27],0%
same,plant injury at 250 g/ha,rice (Oryza sativa); [28],0%
"Cc1cc(-c2ccc(Br)cc2)nn1-c1c(OC(=O)C2CC2)cnn(C(=O)C2CC2)c1=O [Compound 80, 5-[3-(4-bromophenyl)-5-methyl-1H-pyrazol-1-yl]-1-(cyclopropylcarbonyl)-1,6-dihydro-6-oxo-4-pyridazinyl cyclopropanecarboxylate]",pest or weed control at 62 g/ha,[13]; [23],0%
same,pest or weed control at 125 g/ha,"[13]; Heteranthera limosa, Flood (flooded paddy test), 125 g ai/ha, scale 0 to 100, 0 no effect, 100 complete control, read-out: Plant response rating, Ducksalad",0%
same,pest or weed control at 250 g/ha,[13]; [24],0%
same,pest or weed control at 31 g/ha,"[13]; Heteranthera limosa, Flood, 31 g ai/ha, scale 0 to 100, read-out: Plant response rating, Ducksalad",0%
same,pest or weed control at 62 g/ha,[14]; [25],0%
same,pest or weed control at 125 g/ha,"[14]; Cyperus difformis, Flood (flooded paddy test), 125 g ai/ha, scale 0 to 100, 0 no effect, 100 complete control, read-out: Plant response rating, Sedge, Umbrella",0%
same,pest or weed control at 250 g/ha,[14]; [26],0%
same,pest or weed control at 31 g/ha,"[14]; Cyperus difformis, Flood, 31 g ai/ha, scale 0 to 100, read-out: Plant response rating, Sedge, Umbrella",0%
same,plant injury at 62 g/ha,rice (Oryza sativa); [27],0%
same,plant injury at 125 g/ha,"rice (Oryza sativa); Oryza sativa, Flood (flooded paddy test), 125 g ai/ha, scale 0 to 100, 0 no effect, 100 complete control, read-out: Plant response rating, Rice",0%
same,plant injury at 250 g/ha,rice (Oryza sativa); [28],0%
same,plant injury at 31 g/ha,"rice (Oryza sativa); Oryza sativa, Flood, 31 g ai/ha, scale 0 to 100, read-out: Plant response rating, Rice",0%
Cc1nn(C)c(=O)c(-n2nc(-c3ccc(Br)cc3)cc2C)c1O [Compound 81],"Plant response rating, Ducksalad",[13]; [19],0
same,"Plant response rating, Ducksalad",[13]; [20],0
same,"Plant response rating, Ducksalad",[13]; [21],0
same,"Plant response rating, Ducksalad",[13]; [22],0
same,"Plant response rating, Sedge, Umbrella",[14]; [19],0
same,"Plant response rating, Sedge, Umbrella",[14]; [20],0
same,"Plant response rating, Sedge, Umbrella",[14]; [21],0
same,"Plant response rating, Sedge, Umbrella",[14]; [22],0
same,"Plant response rating, Rice",rice (Oryza sativa); [19],0
same,"Plant response rating, Rice",rice (Oryza sativa); [20],0
same,"Plant response rating, Rice",rice (Oryza sativa); [21],0
same,"Plant response rating, Rice",rice (Oryza sativa); [22],0
